Values of other authors, collected in patent publication US20100099088A1, “RELIABLE DETECTION OF VANCOMYCIN-INTERMEDIATE STAPHYLOCOCCUS AUREUS” (priority 2006, published 2010).
Like-named read-outs stand apart in the source and are kept apart here.

Legend:
[1] = tested on: Japanese strain Mu3; settings: strain Mu3, tests as susceptible; cited from earlier work
[2] = tested on: Staphylococcus aureus strains (MRSA, hVISA/VISA, in vitro-selected); settings: cited from earlier work; for CLSI Etest category: key: S = sensitive; I = intermediate; R = resistant
[3] = strain 160013 (NRS283), 0.5 McF inoculum
[4] = strain BR 5 (NRS56), 0.5 McF inoculum
[5] = strain HIP07930 (NRS22), 0.5 McF inoculum
[6] = strain HIP09433 (NRS27), 0.5 McF inoculum
[7] = strain HIP09662 (NRS28), 0.5 McF inoculum
[8] = strain HIP12864 (NRS402), 0.5 McF inoculum
[9] = strain LIM 1 (NRS35), 0.5 McF inoculum
[10] = strain LIM 3 (NRS37), 0.5 McF inoculum
[11] = strain LY-1999 0620-01 (NRS63), 0.5 McF inoculum
[12] = strain LY-1999 0620-02 (NRS64), 0.5 McF inoculum
[13] = strain Mu3 (NRS2), 0.5 McF inoculum
[14] = strain Mu50 (NRS1), 0.5 McF inoculum
[15] = strain NRS118, 0.5 McF inoculum
[16] = strain SA MER (NRS11), 0.5 McF inoculum
[17] = strain SA MER-S20 (NRS14), 0.5 McF inoculum

Structure (SMILES): CN[C@H](CC(C)C)C(=O)N[C@H]1C(=O)N[C@@H](CC(N)=O)C(=O)N[C@H]2C(=O)N[C@H]3C(=O)N[C@H](C(=O)N[C@H](C(=O)O)c4cc(O)cc(O)c4-c4cc3ccc4O)[C@H](O)c3ccc(c(Cl)c3)Oc3cc2cc(c3O[C@@H]2O[C@H](CO)[C@@H](O)[C@H](O)[C@H]2O[C@H]2C[C@](C)(N)[C@H](O)[C@H](C)O2)Oc2ccc(cc2Cl)[C@H]1O [vancomycin]
- MIC (minimum inhibitory concentration) [1]: < 4 mg/L
- CLSI Etest MIC [2, 3]: 4 mg/L
- CLSI Etest category [2, 3]: I
- CLSI Etest MIC [2, 4]: 8 mg/L
- CLSI Etest category [2, 4]: I
- CLSI Etest MIC [2, 5]: 4 mg/L
- CLSI Etest category [2, 5]: I
- CLSI Etest MIC [2, 6]: 4 mg/L
- CLSI Etest category [2, 6]: I
- CLSI Etest MIC [2, 7]: 3 mg/L
- CLSI Etest category [2, 7]: S
- CLSI Etest MIC [2, 8]: 8 mg/L
- CLSI Etest category [2, 8]: I
- CLSI Etest MIC [2, 9]: 2 mg/L
- CLSI Etest category [2, 9]: S
- CLSI Etest MIC [2, 10]: 4 mg/L
- CLSI Etest category [2, 10]: I
- CLSI Etest MIC [2, 11]: 8 mg/L
- CLSI Etest category [2, 11]: I
- CLSI Etest MIC [2, 12]: 1.5 mg/L
- CLSI Etest category [2, 12]: S
- CLSI Etest MIC [2, 13]: 4 mg/L
- CLSI Etest category [2, 13]: I
- CLSI Etest MIC [2, 14]: 8 mg/L
- CLSI Etest category [2, 14]: I
- CLSI Etest MIC [2, 15]: 8 mg/L
- CLSI Etest category [2, 15]: I
- CLSI Etest MIC [2, 16]: 2 mg/L
- CLSI Etest category [2, 16]: S
- CLSI Etest MIC [2, 17]: 8 mg/L
- CLSI Etest category [2, 17]: I
